For test [1], the system named is SARS-COV-2. Nature of the test: Human ACE2 transgenic COVID-19 mouse model (intranasal SARS-COV-2 infection). The class given is in vivo, mice. As to conditions: for Survival (%): Daily.
The subject of test [2] is SARS-COV-2. Nature of the test: In vitro inhibition of SARS-COV-2 replication in Vero E6 cells (viral load by quantitative real-time RT-PCR). The test is classed as cell-based. As to conditions: for effect of removal of the single agent from the formulation on overall activity (FIG. 18): APHR Combination 1 minus one agent. In general terms: In qPCR the cycle at which signal appears reflects the starting amount.

In test [3] the test system is SARS-COV-2. As to conditions: WHO Solidarity Trial; cited from earlier work.
The subject of test [4] is SARS-COV-2. The class given is in vivo. As to conditions: intention-to-treat population; 10 subjects per arm.
For test [5], the system named is SARS-COV-2. As to conditions: 5-day course, 476 patients, mild COVID-19; cited from earlier work.
Where [6] appears, read: 200 mg/kg, Pretreatment to Day 7.

For `O=c1c(O)c(-c2ccc(O)c(O)c2)oc2cc(O)cc(O)c12` [Quercitin], the “Survival (%)” value is listed as 80% in the test with SARS-COV-2 [1] (66 mg/kg, Pretreatment to Day 7) and 100% with SARS-COV-2 [1] (setting [6]). Consider `CCC(CC)COC(=O)[C@H](C)N[P@](=O)(OC[C@H]1O[C@@](C#N)(c2ccc3c(N)ncnn23)[C@H](O)[C@@H]1O)Oc1ccccc1` [Remdesivir], for which the “Survival (%)” value in the test with SARS-COV-2 [1] (50 mg/kg, Day 1 post-treatment to 7) came out at 100%; in the test with SARS-COV-2 [1] (setting [6]), 100%. Consider `CC(C)=CCC[C@](C)(O)C1CC=C(C)CC1` (stereo partly shown) [bisabolol], for which the “effect of removal of the single agent from the formulation on overall activity (FIG. 18)” value in the test on SARS-COV-2 [2] is listed as “reduced overall activity”. Regarding `CCN(CCO)CCCC(C)Nc1ccnc2cc(Cl)ccc12` (stereo not shown) [hydroxychloroquine], in the test on SARS-COV-2 [3], the “effect on hospitalized patients with Covid-19” value is on record as “little or no effect”.

Turning to `Cc1cccc(C)c1OCC(=O)N[C@@H](Cc1ccccc1)[C@@H](O)C[C@H](Cc1ccccc1)NC(=O)[C@H](C(C)C)N1CCCNC1=O` [lopinavir], the “effect on hospitalized patients with Covid-19” value with SARS-COV-2 [3] is “little or no effect”.

`C[C@@H]1O[C@@H](OC[C@H]2O[C@@H](Oc3c(-c4ccc(O)c(O)c4)oc4cc(O)cc(O)c4c3=O)[C@H](O)[C@@H](O)[C@@H]2O)[C@H](O)[C@H](O)[C@H]1O` [rutin]: the inhibition at 1 µM in the test with SARS-COV-2 [2] (Severe acute respiratory syndrome coronavirus 2, Vero C1008, 1 μM final concentration, 1:1 molar ratio of cyclodextrin to rutin, read-out: inhibition of SARS-COV-2 replication over untreated (FIG. 16)) is around 25%. For `O=C(OC[C@H]1O[C@@H](OC(=O)c2cc(O)c(O)c(OC(=O)c3cc(O)c(O)c(O)c3)c2)[C@H](OC(=O)c2cc(O)c(O)c(OC(=O)c3cc(O)c(O)c(O)c3)c2)[C@@H](OC(=O)c2cc(O)c(O)c(OC(=O)c3cc(O)c(O)c(O)c3)c2)[C@@H]1OC(=O)c1cc(O)c(O)c(OC(=O)c2cc(O)c(O)c(O)c2)c1)c1cc(O)c(O)c(OC(=O)c2cc(O)c(O)c(O)c2)c1` [tannic acid], in the test with SARS-COV-2 [2], the “effect of removal of the single agent from the formulation on overall activity (FIG. 18)” value was “reduced overall activity”. Consider ivermectin, for which the “morbidity, body weight (FIG. 8)” value in the test on SARS-COV-2 [1] (β-cyclodextrin Rutin daily from Day 2 post infection, Ivermectin once on Day 2 post infection) is recorded as “decreased morbidity”. For the same compound, in the test with SARS-COV-2 [4], the “Time to defervescence (days)” value is listed as 4 (3 to 6) days and the “Time to resolution of COVID symptoms (days)” value is given as 4 (3 to 6) days. Further, the “duration of symptoms compared with placebo” value in the test on SARS-COV-2 [5] is recorded as “not significantly different”.

One may read the inhibition as the relative decrease from the control value, in per cent.

The values above are taken from patent US20240350659A1, “COMPOSITIONS AND METHODS FOR BIMODAL ANTI-VIRAL COMBINATION THERAPY” (priority 2021, published 2024).
